Assay results: patent US20240150377A1, “MODULATORS OF CYSTIC FIBROSIS TRANSMEMBRANE CONDUCTANCE REGULATOR” (VERTEX PHARMACEUTICALS INCORPORATED, priority 2020, published 2024)
Like-named read-outs stand apart in the source and are kept apart here. Each block holds one compound with its values, some of them ahead of it.

Target: T1, CFTR (Homo sapiens, UniProt P13569, DEL508-508)
T1 construct: endogenous in cells; host or cells: primary human bronchial epithelial cells from CF subjects (F508del/MF-HBE), differentiated at air-liquid interface
Experiment: HBE assay: Ussing chamber assay of CFTR-mediated short-circuit currents
Assay type: cell-based
Settings: for EC50: read-out: HBE EC50
Outline: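 CFTR-mediated Isc (μA/cm²) equals the peak response to apical 20 μM forskolin minus the residual after a 20 μM each BPO/GlyH-101/CFTR inhibitor 172 cocktail, recorded in Ussing chambers at Vhold 0 mV, 37 °C, pH 7.4, with 30 μM apical amiloride. Cells were F508del/MF HBE cultures preincubated 18-24 h with corrector (concentration range or 10 μM) plus 1 μM ivacaftor in 20% human serum.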

[1] = Table 13, read-out: HBE Max Activity (%)
[2] = Table 11, read-out: HBE Max Activity (%)
[3] = HBE assay, read-out: HBE Max activity (%)
[4] = HBE assay, 10 μM, read-out: HBE Activity at 10 μM (%)
[5] = Table 12, read-out: HBE Max Activity (%)
[6] = Table 12, at 10 μM, read-out: HBE Activity at 10 μM (%)
[7] = Table 13, at 10 μM, read-out: HBE Activity at 10 μM (%)
[8] = Table 10, at 10 μM, read-out: HBE activity at 10 (μM) (%)
[9] = Table 10, read-out: HBE Max activity (%)

T1 sequence (P13569 with tags, fused parts or gaps DEL508-508): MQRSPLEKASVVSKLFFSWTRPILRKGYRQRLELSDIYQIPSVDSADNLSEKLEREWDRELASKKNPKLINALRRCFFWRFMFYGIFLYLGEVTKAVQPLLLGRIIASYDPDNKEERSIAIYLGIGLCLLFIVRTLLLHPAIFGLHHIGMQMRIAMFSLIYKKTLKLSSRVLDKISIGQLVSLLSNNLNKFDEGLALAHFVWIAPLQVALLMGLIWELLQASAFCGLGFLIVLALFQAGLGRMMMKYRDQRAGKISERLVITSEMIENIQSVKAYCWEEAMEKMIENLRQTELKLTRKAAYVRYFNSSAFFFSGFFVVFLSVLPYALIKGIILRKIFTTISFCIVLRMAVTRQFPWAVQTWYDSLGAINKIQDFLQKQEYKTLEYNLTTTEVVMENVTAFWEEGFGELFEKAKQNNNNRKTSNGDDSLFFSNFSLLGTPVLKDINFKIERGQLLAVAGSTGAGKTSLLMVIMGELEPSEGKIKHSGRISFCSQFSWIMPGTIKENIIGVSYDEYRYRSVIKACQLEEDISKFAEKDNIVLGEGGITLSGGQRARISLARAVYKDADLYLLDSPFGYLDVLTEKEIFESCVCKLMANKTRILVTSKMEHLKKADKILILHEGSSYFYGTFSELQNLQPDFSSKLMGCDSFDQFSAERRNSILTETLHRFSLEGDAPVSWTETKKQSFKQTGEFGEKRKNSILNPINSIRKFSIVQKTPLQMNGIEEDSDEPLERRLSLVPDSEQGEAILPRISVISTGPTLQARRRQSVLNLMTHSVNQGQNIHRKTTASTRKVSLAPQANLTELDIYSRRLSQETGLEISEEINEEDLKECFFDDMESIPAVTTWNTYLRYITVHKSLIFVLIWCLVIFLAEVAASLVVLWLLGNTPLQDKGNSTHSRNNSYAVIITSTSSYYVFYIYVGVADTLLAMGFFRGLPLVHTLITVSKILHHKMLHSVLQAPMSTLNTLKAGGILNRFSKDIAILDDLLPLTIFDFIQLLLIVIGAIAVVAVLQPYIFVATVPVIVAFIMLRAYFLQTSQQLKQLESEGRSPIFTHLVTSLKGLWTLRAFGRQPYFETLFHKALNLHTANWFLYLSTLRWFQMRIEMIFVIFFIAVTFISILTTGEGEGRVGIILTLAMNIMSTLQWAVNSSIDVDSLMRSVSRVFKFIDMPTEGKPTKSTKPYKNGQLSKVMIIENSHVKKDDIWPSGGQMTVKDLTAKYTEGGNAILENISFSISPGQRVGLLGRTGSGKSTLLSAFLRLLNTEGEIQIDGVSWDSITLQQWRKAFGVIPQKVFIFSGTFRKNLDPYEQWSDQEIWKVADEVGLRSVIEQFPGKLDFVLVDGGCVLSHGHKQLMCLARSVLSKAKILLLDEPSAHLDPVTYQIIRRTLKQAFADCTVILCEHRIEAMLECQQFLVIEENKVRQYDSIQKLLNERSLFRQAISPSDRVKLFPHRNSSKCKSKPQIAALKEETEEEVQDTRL

Structure (SMILES): Cc1cccc(C)c1-c1cc2nc(n1)NS(=O)(=O)c1cccc(c1)C(=O)N(Cc1nccc(N(C)C(C)C)n1)[C@H](CC(C)(C)C)CO2 [Compound 123, (11R)-6-(2,6-Dimethylphenyl)-11-(2,2-dimethylpropyl)-12-[[4-[isopropyl(methyl)amino]pyrimidin-2-yl]methyl]-2,2-dioxo-9-oxa-2λ^6-thia-3,5,12,19-tetrazatricyclo[12.3.1.14,8]nonadeca-1(18),4(19),5,7,14,16-hexaen-13-one]
- EC50 (Table 11): < 1000 nM
- Emax [2]: > 60%

Structure (SMILES): Cc1cccc(C)c1-c1cc2nc(n1)NS(=O)(=O)c1cccc(c1)C(=O)N(Cc1ncc(OC3CCC3)cc1F)[C@H](CC(C)(C)C)CO2 [Compound 1299, (11R)-12-[[5-(Cyclobutoxy)-3-fluoro-2-pyridyl]methyl]-6-(2,6-dimethylphenyl)-11-(2,2-dimethylpropyl)-2,2-dioxo-9-oxa-2λ^6-thia-3,5,12,19-tetrazatricyclo[12.3.1.14,8]nonadeca-1(18),4(19),5,7,14,16-hexaen-13-one]
- EC50 (HBE assay): < 1000 nM
- Emax [3]: > 60%

Structure (SMILES): Cc1cccc(C)c1-c1cc2nc(n1)NS(=O)(=O)c1cccc(c1)C(=O)N(Cc1ccc(C3CC4(C3)CC(C)(C)C4)cn1)[C@H](CC(C)(C)C)CO2 [Compound 157, (11R)-6-(2,6-Dimethylphenyl)-11-(2,2-dimethylpropyl)-12-[[5-(2,2-dimethylspiro[3.3]heptan-6-yl)-2-pyridyl]methyl]-2,2-dioxo-9-oxa-2λ6-thia-3,5,12,19-tetrazatricyclo[12.3.1.14,8]nonadeca-1(18),4(19),5,7,14,16-hexaen-13-one]
- EC50 (Table 13): < 1000 nM
- Emax [1]: > 60%

Structure (SMILES): Cc1cccc(C)c1-c1cc2nc(n1)NS(=O)(=O)c1cccc(c1)C(=O)N(Cc1ccc(C3CCOC3)cn1)[C@H](CC(C)(C)C)CO2 (some centres unmarked) [Compound 261]
- EC50 (Table 12): < 1000 nM
- Emax [5]: > 60%

Structure (SMILES): Cc1cccc(C)c1-c1cc2nc(n1)NS(=O)(=O)c1cccc(c1)C(=O)N(Cc1cncc(N(C)C3CC4(CCC4)C3)n1)[C@H](CC(C)(C)C)CO2 [Compound 441]
- EC50 (Table 12): < 1000 nM
- Emax [5]: > 60%

Structure (SMILES): Cc1cccc(C)c1-c1cc2nc(n1)NS(=O)(=O)c1cccc(c1)C(=O)N(Cc1nccc(N(C)C(C3CC3)C3CC3)n1)[C@H](CC(C)(C)C)CO2 [Compound 434]
- activation at 10 µM [7]: > 600%

Structure (SMILES): Cc1cccc(C)c1-c1cc2nc(n1)NS(=O)(=O)c1cccc(c1)C(=O)N(Cc1nc(C(C)(C)C)co1)[C@H](CC(C)(C)C)CO2 [Compound 167]
- activation at 10 µM [6]: > 600%

Structure (SMILES): COCC(C)N(C)c1cncc(CN2C(=O)c3cccc(c3)S(=O)(=O)Nc3nc(cc(-c4c(C)cccc4C)n3)OC[C@H]2CC(C)(C)C)n1 (some centres unmarked) [Compound 444]
- EC50 (Table 12): < 1000 nM
- Emax [5]: > 60%

Structure (SMILES): Cc1cccc(C)c1-c1cc2nc(n1)NS(=O)(=O)c1cccc(c1)C(=O)N(Cc1ccc(-c3c[nH]nc3C3CC3)cn1)[C@H](CC(C)(C)C)CO2 [Compound 297]
- EC50 (Table 10): < 1000 nM
- Emax [9]: > 60%

Structure (SMILES): Cc1cccc(C)c1-c1cc2nc(n1)NS(=O)(=O)c1cccc(c1)C(=O)N(CC(=O)N1CCC(OC(C)C)C1)[C@H](CC(C)(C)C)CO2 (some centres unmarked) [Compound 201]
- activation at 10 µM [7]: > 600%

Structure (SMILES): CC(C)=C(C)c1ccnc(CN2C(=O)c3cccc(c3)S(=O)(=O)Nc3nc(cc(-c4c(C)cccc4C)n3)OC[C@H]2CC(C)(C)C)n1 [Compound 555]
- activation at 10 µM [6]: > 600%

Structure (SMILES): Cc1cccc(C)c1-c1cc2nc(n1)NS(=O)(=O)c1cccc(c1)C(=O)N(Cc1ncc(OC3CCCCC3)cn1)[C@H](CC(C)(C)C)CO2 [Compound 561]
- activation at 10 µM [6]: > 600%
- EC50 (Table 12): < 1000 nM
- Emax [5]: > 60%

Structure (SMILES): Cc1cccc(C)c1-c1cc2nc(n1)NS(=O)(=O)c1cccc(c1)C(=O)N(Cc1cnccc1N1CCOCC1)[C@H](CC(C)(C)C)CO2 [Compound 376]
- EC50 (Table 10): < 1000 nM
- Emax [9]: > 60%

Structure (SMILES): Cc1cccc(C)c1-c1cc2nc(n1)NS(=O)(=O)c1cccc(c1)C(=O)N(Cc1ncc(OC3CCOCC3)cn1)[C@H](CC(C)(C)C)CO2 [Compound 556]
- EC50 (Table 12): < 1000 nM
- Emax [5]: > 60%

Structure (SMILES): Cc1cccc(O)c1-c1cc2nc(n1)NS(=O)(=O)c1cccc(c1)C(=O)N(Cc1ccc(N3CCOCC3)cn1)[C@H](CC(C)(C)C)CO2 [Compound 333]
- activation at 10 µM (Table 11, at 10 μM, read-out: HBE Activity at 10 μM (%)): 30 to 60%

Structure (SMILES): Cc1cccc(C)c1-c1cc2nc(n1)NS(=O)(=O)c1cccc(c1)C(=O)N(CC1CCN(c3ccncc3)CC1)[C@H](CC(C)(C)C)CO2 [Compound 492]
- activation at 10 µM [8]: > 60%

Structure (SMILES): Cc1cccc(C)c1-c1cc2nc(n1)NS(=O)(=O)c1cccc(c1)C(=O)N(C(=O)c1ccccc1)[C@H](CC(C)(C)C)CO2 [Compound 256]
- activation at 10 µM [7]: > 600%

Further lines, results first:

- EC50 (Table 13): < 1000 nM
- Emax [1]: > 60%
Structure (SMILES): Cc1cccc(C)c1-c1cc2nc(n1)NS(=O)(=O)c1cccc(n1)C(=O)N(Cc1ncc(N3CCC(C)(C)C3=O)cn1)[C@H](CC(C)(C)C)CO2 [Compound 1141]

- EC50 (HBE assay): < 1000 nM
- Emax [3]: > 60%
Structure (SMILES): COCCN(CC(C)C)c1cccc(CN2C(=O)c3cccc(c3)S(=O)(=O)Nc3nc(cc(-c4c(C)cccc4C)n3)OC[C@H]2CC(C)(C)C)n1 [Compound 1372]

- EC50 (HBE assay): 1000 to 3000 nM
- Emax [3]: > 60%
Structure (SMILES): Cc1cccc(C)c1-c1cc2nc(n1)NS(=O)(=O)c1cccc(c1)C(=O)N(Cc1ncc(OC3CC(C)(C)C3)cn1)[C@H](CC(C)C)CO2 [Compound 1423]

- EC50 (Table 11): < 1000 nM
- Emax [2]: > 60%
Structure (SMILES): Cc1cccc(C)c1-c1cc2nc(n1)NS(=O)(=O)c1cccc(c1)C(=O)N(Cc1cnc(OC(C)C)cn1)[C@H](CC(C)(C)C)CO2 [Compound 897]

- activation at 10 µM [4]: > 60%
Structure (SMILES): CCOc1cnc(CN2C(=O)c3cccc(c3)S(=O)(=O)Nc3nc(cc(-c4c(C)cccc4C)n3)OC[C@H]2CC2(C)CC2)nc1 [Compound 1524]

- EC50 (HBE assay): < 1000 nM
- Emax [3]: > 60%
Structure (SMILES): CCO[C@H]1C[C@@H](Oc2cnc(CN3C(=O)c4cccc(c4)S(=O)(=O)Nc4nc(cc(-c5c(C)cccc5C)n4)OC[C@H]3CC(C)C)nc2)C1 [Compound 1461]

- activation at 10 µM [6]: > 600%
Structure (SMILES): Cc1cccc(C)c1-c1cc2nc(n1)NS(=O)(=O)c1cccc(c1)C(=O)N(Cc1nc(C3CC3)cs1)[C@H](CC(C)(C)C)CO2 [Compound 701]

- EC50 (Table 13): < 1000 nM
- Emax [1]: > 60%
Structure (SMILES): Cc1cc(N2CCC(C)(C)C2)cnc1CN1C(=O)c2cccc(c2)S(=O)(=O)Nc2nc(cc(-c3c(C)cccc3C)n2)OC[C@H]1CC(C)(C)C [Compound 1135]

- EC50 (Table 11): < 1000 nM
- Emax [2]: > 60%
Structure (SMILES): Cc1cccc(C)c1-c1cc2nc(n1)NS(=O)(=O)c1cccc(c1)C(=O)N(Cc1ncc(C(C)(C)C)cn1)[C@H](CC(C)(C)C)CO2 [Compound 815]

- EC50 (Table 11): 1000 to 3000 nM
- Emax [2]: > 60%
Structure (SMILES): Cc1cccc(C)c1-c1cc2nc(n1)NS(=O)(=O)c1cccc(c1)C(=O)N(Cc1ncc(C3CC3)cn1)[C@H](CC(C)(C)C)CO2 [Compound 642]

- EC50 (Table 13): < 1000 nM
- Emax [1]: > 60%
Structure (SMILES): Cc1cccc(C)c1-c1cc2nc(n1)NS(=O)(=O)c1cccc(c1)C(=O)N(Cc1ncc(N3CCSCC3)cn1)[C@H](CC(C)(C)C)CO2 [Compound 1147]

- activation at 10 µM [4]: > 60%
- EC50 (HBE assay): < 1000 nM
- Emax [3]: > 60%
Structure (SMILES): Cc1cccc(C)c1-c1cc2nc(n1)NS(=O)(=O)c1cccc(c1)C(=O)N(Cc1cncc(N3CCC[C@H]3C(C)C)n1)[C@H](CC1CC1)CO2 [Compound 1499]

- activation at 10 µM [8]: 30 to 60%
Structure (SMILES): Cc1cccc(C)c1-c1cc2nc(n1)NS(=O)(=O)c1cccc(c1)C1Oc3ncc4ccccc4c3CN1[C@H](CC(C)(C)C)CO2 (some centres unmarked) [Compound 753]

- EC50 (Table 11): < 1000 nM
- Emax [2]: > 60%
Structure (SMILES): Cc1cccc(C)c1-c1cc2nc(n1)NS(=O)(=O)c1cccc(c1)C(=O)N(Cc1ncccc1NCC(C)(C)C)[C@H](CC(C)(C)C)CO2 [Compound 724]

- EC50 (Table 11): < 1000 nM
- Emax [2]: > 60%
Structure (SMILES): CO[C@@H]1CCN(c2cccc(CN3C(=O)c4cccc(c4)S(=O)(=O)Nc4nc(cc(-c5c(C)cccc5C)n4)OC[C@H]3CC(C)(C)C)n2)C1 [Compound 624]

- EC50 (Table 13): < 1000 nM
- Emax [1]: > 60%
Structure (SMILES): Cc1cc(OC(C)C)cnc1CN1C(=O)c2cccc(c2)S(=O)(=O)Nc2nc(cc(-c3c(C)cccc3C)n2)OC[C@H]1CC(C)(C)C [Compound 1116]

- EC50 (Table 11): < 1000 nM
- Emax [2]: > 60%
Structure (SMILES): Cc1cccc(C)c1-c1cc2nc(n1)NS(=O)(=O)c1cccc(c1)C(=O)N(Cc1nccc(N(C)C3CCC3)n1)[C@H](CC(C)(C)C)CO2 [Compound 627]

- EC50 (Table 10): < 1000 nM
- Emax [9]: > 60%
Structure (SMILES): Cc1cccc(C)c1-c1cc2nc(n1)NS(=O)(=O)c1cccc(c1)C(=O)N(CC1CCC(N3C[C@@H](C)O[C@@H](C)C3)CC1)[C@H](CC(C)(C)C)CO2 (some centres unmarked) [Compound 913]

- activation at 10 µM [4]: > 60%
Structure (SMILES): Cc1cccc(C)c1-c1cc2nc(n1)NS(=O)(=O)c1cccc(c1)C(=O)N(Cc1ncc(OC(C)C)cn1)[C@H](CC(C)(C)F)CO2 [Compound 1308, (11R)-6-(2,6-Dimethylphenyl)-11-(2-fluoro-2-methyl-propyl)-12-[(5-isopropoxypyrimidin-2-yl)methyl]-2,2-dioxo-9-oxa-2λ^6-thia-3,5,12,19-tetrazatricyclo[12.3.1.14,8]nonadeca-1(18),4(19),5,7,14,16-hexaen-13-one]

- EC50 (Table 13): < 1000 nM
- Emax [1]: > 60%
Structure (SMILES): COC1(C)CCN(c2ccc(CN3C(=O)c4cccc(c4)S(=O)(=O)Nc4nc(cc(-c5c(C)cccc5C)n4)OC[C@H]3CC(C)(C)C)nc2)CC1 [Compound 1059]
